Measured values from patent publication US6150385A, “1,3,4-thiadiazoles useful for the treatment of CMV infections” (Pharmacia & Upjohn Company, priority 1999, dated 2000).

Target: T1, HCMV polymerase (Human cytomegalovirus, UniProt P08546)
T1 construct: made in house; host or cells: SF-9 insect cells infected with recombinant baculovirus
Assay: HCMV polymerase assay (scintillation proximity assay)
Assay type: biochemical
Details: percentage of inhibition at 25 μM concentration in CMV polymerase assay
Method: The compounds of the present invention are tested in an polymerase assay to show activity described below, which is indicative of a compound's activity and thus of its use as an anti-viral agent.
The HCMV polymerase assay is performed using a scintillation proximity assay (SPA) as described in several references, such as N. D. Cook, et al., Pharmaceutical Manufacturing International, pages 49-53 (1992); K. Takeuchi, Laboratory Practice, September issue (1992); U.S. Pat. No. 4,568,649 (1986); which are incorporated by reference herein. Reactions are performed in 96-well plates. The assay is conducted in 100 μl volume with 5.4 mM HEPES (pH 7.5), 11.7 mM KCl, 4.5 mM MgCl2, 0.36 mg/ml BSA, and 90 nM ^3 H-dTTP. Assays are run with and without CHAPS, (3-[(3-Cholamidopropyl)-dimethylammonio]-1-propanesulfonate) at a final concentration of 2 mM. HCMV is diluted in enzyme dilution buffer containing 50% glycerol, 250 mM NaCl, 10 mM HEPES (pH 7.5), 100 μg/ml BSA, and 0.01% sodium azide. The HCMV polymerase, which is expressed in recombinant baculovirus-infected SF-9 cells and purified according to literature procedures, is added at 10% (or 10 μl) of the final reaction volume, i.e., 100 μl. Compounds are diluted in 50% DMSO and 10 μl are added to each well. Control wells contain an equivalent concentration of DMSO. Unless noted otherwise, reactions are initiated via the addition of 6 nM biotinylated poly(dA)-oligo(dT) template/primer to reaction mixtures containing the enzyme, substrate, and compounds of interest. Plates are incubated in a 25° C. or 37° C. H2 O bath and terminated via the addition of 40 μl/reaction of 0.5 M EDTA (pH 8) per well. Reactions are terminated within the time-frame during which substrate incorporation is linear and varied depending upon the enzyme and conditions used, i.e., 30 min. for HCMV polymerase. Ten μl of streptavidin-SPA beads (20 mg/ml in PBS/10% glycerol) are added following termination of the reaction. Plates are incubated 10 min. at 37° C., then equilibrated to room temperature, and counted on a Packard Topcount.
In TABLE 1, "MS" refers to mass spectral data, "% inhib" refers to percentage of inhibition at 25 μM concentration in CMV polymerase assay.

T1 sequence (P08546 whole entry): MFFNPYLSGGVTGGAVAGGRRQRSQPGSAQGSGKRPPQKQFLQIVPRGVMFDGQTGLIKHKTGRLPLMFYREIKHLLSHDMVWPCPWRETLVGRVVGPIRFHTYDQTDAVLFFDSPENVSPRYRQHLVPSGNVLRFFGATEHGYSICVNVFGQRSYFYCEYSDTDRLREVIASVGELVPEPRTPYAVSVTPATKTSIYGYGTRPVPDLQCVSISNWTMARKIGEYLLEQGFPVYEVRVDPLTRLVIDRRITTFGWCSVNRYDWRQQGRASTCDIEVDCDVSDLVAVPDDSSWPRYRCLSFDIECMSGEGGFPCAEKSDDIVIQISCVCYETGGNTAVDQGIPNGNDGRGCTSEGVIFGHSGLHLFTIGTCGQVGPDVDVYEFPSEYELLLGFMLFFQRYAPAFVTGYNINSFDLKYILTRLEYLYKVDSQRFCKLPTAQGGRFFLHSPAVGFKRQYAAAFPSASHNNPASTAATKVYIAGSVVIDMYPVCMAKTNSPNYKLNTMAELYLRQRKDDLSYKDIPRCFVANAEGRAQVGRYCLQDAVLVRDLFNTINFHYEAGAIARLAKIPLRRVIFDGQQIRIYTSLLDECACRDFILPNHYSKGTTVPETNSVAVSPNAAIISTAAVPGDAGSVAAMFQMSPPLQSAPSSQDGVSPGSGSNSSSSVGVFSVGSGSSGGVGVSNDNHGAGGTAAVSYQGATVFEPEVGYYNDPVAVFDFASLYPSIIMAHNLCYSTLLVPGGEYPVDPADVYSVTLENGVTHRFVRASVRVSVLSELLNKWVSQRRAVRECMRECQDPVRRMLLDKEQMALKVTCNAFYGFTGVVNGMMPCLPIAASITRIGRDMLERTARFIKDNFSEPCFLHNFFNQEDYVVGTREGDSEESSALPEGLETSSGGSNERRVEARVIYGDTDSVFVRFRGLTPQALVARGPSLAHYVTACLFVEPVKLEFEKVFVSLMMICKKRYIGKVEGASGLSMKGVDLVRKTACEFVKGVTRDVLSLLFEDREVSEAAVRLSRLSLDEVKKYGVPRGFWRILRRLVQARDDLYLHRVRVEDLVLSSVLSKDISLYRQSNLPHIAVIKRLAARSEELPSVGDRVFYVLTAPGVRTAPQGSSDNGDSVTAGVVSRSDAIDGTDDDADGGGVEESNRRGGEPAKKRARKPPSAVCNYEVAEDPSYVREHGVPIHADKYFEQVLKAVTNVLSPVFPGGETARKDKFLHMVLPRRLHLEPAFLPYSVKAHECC

inhibition at 25 µM | SMILES
28.6% | COc1ccccc1C(=O)Nc1nnc(NCCc2ccc(S(N)(=O)=O)cc2)s1 [compound 366, N-(5-{[4-(aminosulfonyl)phenethyl]amino}-1,3,4-thiadiazol-2-yl)-2-methoxybenzamide]
46.2% | O=C(/C=C/c1ccccc1Cl)Nc1nnc(NC2CCCCCC2)s1 [compound 196, (E)-3-(2-chlorophenyl)-N-[5-(cycloheptylamino) 1,3,4-thiadiazol-2-yl]-2-propenamide]
25% | O=C(Nc1nnc(NCC2CCCO2)s1)c1cc2ccccc2s1 (centres unmarked) [compound 405, N-{5-[(tetrahydro-2-furanylmethyl)amino]-1,3,4-thiadiazol-2-yl}-1-benzothiophene-2-carboxamide]
43.2% | O=C(Nc1nnc(NCc2ccncc2)s1)c1cc2ccccc2s1 [compound 222, N-{5-[(4-pyridinylmethyl)amino]-1,3,4-thiadiazol-2-yl}-1-benzothiophene-2-carboxamide]
31.1% | CCOC(=O)N1CCC(Nc2nnc(NC(=O)/C=C/c3ccccc3Cl)s2)CC1 [compound 344]
41.3% | O=C(Nc1nnc(NCc2ccccn2)s1)c1c(Cl)cccc1Cl [compound 241, 2,6-dichloro-N-{5-[(2-pyridinylmethyl)amino]-1,3,4-thiadiazol-2-yl}benzamide]
56.5% | CCOc1ccc2ccccc2c1C(=O)Nc1nnc(NCc2cccc3ccccc23)s1 [compound 136, 2-ethoxy-N-{5-[(1-naphthylmethyl)amino]-1,3,4-thiadiazol-2-yl}-1-naphthamide]
46.8% | CCCCCCCCCCCNc1nnc(NC(=O)c2ccc(Br)cc2)s1 [compound 194, 4-bromo-N-[5-(undecylamino)-1,3,4-thiadiazol-2-yl]benzamide]
23.3% | COc1ccccc1C(=O)Nc1nnc(NC2CCCc3ccccc32)s1 (centres unmarked) [compound 428, 2-methoxy-N-[5-(1,2,3,4-tetrahydro-1-naphthalenylamino)-1,3,4-thiadiazol-2-yl]benzamide]
25% | CC(C)(C)OC(=O)CCNc1nnc(NC(=O)c2ccc(C(F)(F)F)cc2)s1 [compound 407, tert-butyl 3-[(5-{[4-(trifluoromethyl)benzoyl]amino}-1,3,4-thiadiazol-2-yl)amino]propanoate]
37% | CCCCC(CC)CNc1nnc(NC(=O)c2c(Cl)cccc2Cl)s1 (centres unmarked) [compound 283, 2,6-dichloro-N-{5-[(2-ethylhexyl)amino]-1,3,4-thiadiazol-2-yl}benzamide]
92.6% | CCCCCCCC/C=C/CCCCCCCC(=O)Nc1nnc(NC2CC2)s1 [compound 28, (E)-N-[5-(cyclopropylamino)-1,3,4-thiadiazol-2-yl]-9-octadecenamide]
63.5% | CCCCCCCC/C=C/CCCCCCCC(=O)Nc1nnc(NCCCCc2ccccc2)s1 [compound 108, (E)-N-{5-[(4-phenylbutyl)amino]-1,3,4-thiadiazol-2-yl}-9-octadecenamide]
39.5% | CCOc1ccc2ccccc2c1C(=O)Nc1nnc(NC[C@@H]2CCC3CC2C3(C)C)s1 (stereo partly drawn) [compound 261, N-[5-({[(2R)-6,6-dimethylbicyclo[3.1.1]hept-2-yl]methyl}amino)-1,3,4-thiadiazol-2-yl]-2-ethoxy-1-naphthamide]
21.6% | O=C(Nc1nnc(NCCc2c[nH]cn2)s1)c1c(Cl)cccc1Cl [compound 448, 2,6-dichloro-N-(5-{[2-(1H-imidazol-4-yl)ethyl]amino}-1,3,4-thiadiazol-2-yl)benzamide]
35.9% | O=C(/C=C/c1ccccc1)Nc1nnc(NC2CCN(Cc3ccccc3)CC2)s1 [compound 290, (E)-N-{5-[(1-benzyl-4-piperidinyl)amino]-1,3,4-thiadiazol-2-yl}-3-phenyl-2-propenamide]
61.2% | O=C(Nc1nnc(NCc2cccs2)s1)c1c(Cl)cccc1Cl [compound 118, 2,6-dichloro-N-{5-[(2-thienylmetyl)amino]-1,3,4-thiadiazol-2-yl}benzamide]
69.8% | CCOc1ccc2ccccc2c1C(=O)Nc1nnc(NCc2ccc(F)cc2)s1 [compound 71, 2-ethoxy-N-{5-[(4-fluorobenzyl)amino]-1,3,4-thiadiazol-2-yl}-1-naphthamide]

inhibition at 25 µM | SMILES
41.1% | O=C(Nc1nnc(NCCC(c2ccccc2)c2ccccc2)s1)c1ccc(F)cc1F [compound 243, N-{5-[(3,3-diphenylpropyl)amino]-1,3,4-thiadiazol-2-yl}-2,4-difluorobenzamide]
77.4% | O=C(Nc1nnc(NCC(c2ccccc2)c2ccccc2)s1)c1c(Cl)cccc1Cl [compound 56, 2,6-dichloro-N-{5-[(2,2-diphenylethyl)amino]-1,3,4-thiadiazol-2-yl}benzamide]
33.8% | O=C(CCCCCl)Nc1nnc(NCC2CCCCC2)s1 [compound 315, 5-chloro-N-{5-[(cyclohexylmethyl)amino]-1,3,4-thiadiazol-2-yl}pentanamide]
32.5% | COc1ccccc1C(=O)Nc1nnc(NCCc2ccccc2)s1 [compound 327, 2-methoxy-N-[5-(phenethylamino)-1,3,4-thiadiazol-2-yl]benzamide]
71.7% | O=C(/C=C/c1ccccc1Cl)Nc1nnc(NCc2ccc(F)cc2)s1 [compound 67, (E)-3-(2-chlorophenyl)-N-{5-[(4-fluorobenzyl)amino]-1,3,4-thiadiazol-2-yl}-2-propenamide]
31.2% | CCCCCCCCCCCNc1nnc(NC(=O)/C=C/c2ccccc2)s1 [compound 342, (E)-3-phenyl-N-[5-(undecylamino)-1,3,4-thiadiazol-2-yl]-2-propenamide]
38.4% | O=C(Nc1nnc(NCCc2c[nH]c3ccccc23)s1)c1cccc([N+](=O)[O-])c1 [compound 271, N-(5-{[2-(1H-indol-3-yl)ethyl]amino}-1,3,4-thiadiazol-2-yl)-3-nitrobenzamide]
34.2% | CC1(C)C2CC[C@@H](CNc3nnc(NC(=O)c4ccc(C#N)cc4)s3)C1C2 (stereo partly drawn) [compound 307, 4-cyano-N-[5-({[(2R)-6,6-dimethylbicyclo[3.1.1]hept-2-yl]methyl}amino)-1,3,4-thiadiazol-2-yl]benzamide]
46.2% | O=C(Nc1nnc(NCCCCc2ccccc2)s1)c1ccc(F)cc1F [compound 197, 2,4-difluoro-N-{5-[(4-phenylbutyl)amino]-1,3,4-thiadiazol-2-yl}benzamide]
91.8% | NS(=O)(=O)c1ccc(CNc2nnc(NC(=O)c3c(Cl)cccc3Cl)s2)cc1 [compound 30, N-(5-{[4-(aminosulfonyl)benzyl]amino}-1,3,4-thiadiazol-2-yl)-2,6-dichlorobenzamide]
87.1% | O=C(Nc1nnc(NCc2cccs2)s1)c1ccc2c(c1)C(=O)OC2=O [compound 39, 1,3-dioxo-N-{5-[(2-thienylmethyl)amino]-1,3,4-thiadiazol-2-yl}-1,3-dihydro-2-benzofuran-5-carboxamide]
47% | O=C(Nc1nnc(NC2CCCc3ccccc32)s1)c1ccc([N+](=O)[O-])o1 (centres unmarked) [compound 192, 5-nitro-N-[5-(1,2,3,4-tetrahydro-1-naphthalenylamino)-1,3,4-thiadiazol-2-yl]-2-furamide]
40.1% | CCCCCCCC/C=C/CCCCCCCC(=O)Nc1nnc(NC2CCN(Cc3ccccc3)CC2)s1 [compound 253, (E)-N-{5-[(1-benzyl-4-piperidinyl)amino]-1,3,4-thiadiazol-2-yl}-9-octadecenamide]
28.3% | O=C(Nc1nnc(NC2CCCCCC2)s1)c1c(Cl)cccc1Cl [compound 369, 2,6-dichloro-N-[5-(cycloheptylamino)-1,3,4-thiadiazol-2-yl]benzamide]
52.8% | O=C(Nc1nnc(NCCCNC2CCCCC2)s1)c1ccc(Br)cc1 [compound 159, 4-bromo-N-(5-{[3-(cyclohexylamino)propyl]amino}-1,3,4-thiadiazol-2-yl)benzamide]
20.5% | O=C(Nc1nnc(NCc2ccc(Cl)c(Cl)c2)s1)c1cccc([N+](=O)[O-])c1 [compound 462, N-{5-[(3,4-dichlorobenzyl)amino]-1,3,4-thiadiazol-2-yl}-3-nitrobenzamide]
52.9% | N#Cc1ccc(C(=O)Nc2nnc(NCCCN3CCCC3=O)s2)cc1 [compound 158, 4-cyano-N-(5-{[3-(2-oxo-1-pyrrolidinyl)propyl]amino}-1,3,4-thiadiazol-2-yl)benzamide]
